Reference: patent publication US11931330B2, “Composition for promoting skeletal muscle activity via induction of mitochondrial biogenesis comprising of azelaic acid as an active ingredient” (Korea University Research and Business Foundation, priority 2018, dated 2024)

What was measured:
Hepa1c1c-7 cells = assay: MTT assay, cytotoxicity of azelaic acid; type: cell-based; conditions: 0 to 500 μM, 24 hours, compared to the control group
Protocol: To evaluate cytotoxicity of an azelaic acid, an MTT assay was performed. The MTT assay is a test method utilizing the ability of mitochondria to reduce MTT tetrazolium, which is a yellow water-soluble substrate, to non-water-soluble MTT formazan showing a blue-violet color by a dehydrogenase. The MTT reagent was prepared by being diluted in phosphate buffered saline (PBS) at a concentration of 2 to 5 mg/mL. Hepalcic-7 cells used in this experiment were purchased from the Korean Cell Line Bank, and cultured in a minimum essential medium Eagle alpha modification medium (MEM-alpha, Hyclone) supplemented with 10% FBS and 1% PEST. For this experiment, the Hepa1c1c-7 cells (4×10^4 cell/mL) were seeded into a 96-well plate and incubated at 37° C. under 5% CO2 for 24 hours, and then incubated for 24 hours by adding an azelaic acid in a concentration range of 0 to 500 μM. Afterward, each sample was treated with 100 μL of the MTT reagent (4 mg/mL), incubated at 37° C. under 5% CO2 for 4 hours and treated with 100 μL of dimethyl sulfoxide (DMSO), followed by measuring absorbance at 540 nm. Since the absorbance level is proportional to a cell count, a cell death effect caused by toxicity may be quantified.

PGC-1α = PGC-1α gene and protein expression in differentiated C2C12 cells (qPCR, immunoblotting); type: cell-based, murine; conditions: 50 μM, 24 hours, compared to DMSO control
Protocol: (§1) Murine skeletal muscle cells, C2C12 cells, were purchased from the Korean Cell Line Bank. The cells were cultured using a Dulbecco's modified Eagle's medium (DMEM) supplemented with 20% fetal bovine serum (FBS; HyClone, USA) and 1% antibiotics (penicillin/streptomycin). When the cells reached 50% confluency (the degree of proliferation) under 5% CO2 (v/v) at 37° C., the cells were subcultured and maintained.
(§2) To differentiate the cells, the medium was replaced with DMEM containing 2% horse serum (HyClone), and after 7 days of differentiation, the cells were used in the experiment.
C2C12 cells differentiated for 7 days as described in Example 2-1 were treated with 12.5, 25 or 50 μM of an azelaic acid. […]
qPCR was performed to synthesize cDNA using RNA extracted from cells grown in a culture medium and then treated with 300 μL of the RNAiso plus reagent per well. […] A gene expression level was analyzed using the iQ5 Cycler System (Bio-Rad, USA).
Protein extraction was performed using an RIPA buffer (10 mM Tris-HCl, pH 7.5, 1% NP-40, 0.1% sodium deoxycholate, 0.1% SDS, 150 mM NaCl, and 1 mM EDTA), a Halt™ protease and a phosphatase inhibitor reagent (Thermo, USA). […] The resulting immunoblotting image was analyzed using the ChemiDoc™ touch imaging system and Image Lab 5.2 software (Bio-Rad, PA, USA).

C2C12 cells = assay: mtDNA level and mitochondrial density (MitoTracker) in differentiated C2C12 cells; type: cell-based, murine
Protocol: as §1, §2
C2C12 cells differentiated for 7 days as described in Example 2-1 were treated with 12.5, 25 or 50 μM of an azelaic acid. After 24 hours, RNA and proteins were extracted according to the following method, and used in the experiment. For a control, instead of an azelaic acid, the same amount of DMSO was treated.
After treatment with azelaic acid, the change in mitochondrial density was detected using MitoTracker. C2C12 cells were treated with an azelaic acid for 24 hours, and then washed with PBS. Subsequently, a medium containing […] of MitoTracker, i.e., a green probe, was added thereto, and the cells were cultured for 30 minutes. The mitochondrial density was measured by quantifying wavelengths of a part binding to the tracker, which absorbs a wavelength at 490 nm and emits a wavelength at 516 nm, using SpectraMax. Image analysis was performed using a confocal microscope and Zeiss LSM700 version 3.2 software (Carl Zeiss, Germany).
The differentiated C2C12 cells were treated with azelaic acid, treated with 300 μL of a lysis buffer (20 mM EDTA, 100 mM Tris, 200 mM NaCl, 0.2% Triton X-100, 100 μg/mL) per well, and cultured at 37° C. for 90 minutes, and the extracted supernatant was treated with the same amount of isopropanol and 25 μL of a 4M NaCl solution. After storage at −20° C. overnight, distilled water (D.W.) was added to a pellet obtained by centrifugation (14,000 rpm, RT, 20 min), thereby extracting mtDNA. […] A gene expression level was analyzed using the iQ5 Cycler System (Bio-Rad, USA).

Olfr544 [1] = assay: PGC-1α expression in Scr siRNA normal and Olfr544 knockdown C2C12 cells; type: cell-based, murine; conditions: 50 μM
Protocol: (§3) The differentiated skeletal muscle cells, C2C12 cells, were transfected with 200 pmol of scramble (control) or Olfr544 siRNA duplex (Santa Cruz, USA) using the Lipofectamine 2000 reagent (Invitrogen, USA) for 6 hours. Subsequently, another transfection was performed for 10 to 12 hours. The transfected cells were used for RNA or protein extraction.
qPCR was performed to synthesize cDNA using RNA extracted from cells grown in a culture medium and then treated with 300 μL of the RNAiso plus reagent per well. Subsequently, the synthesized cDNA was subjected to qPCR using the Thunderbird TMSYBR® qPCR Mix reagent (Takara Bio Inc., Japan). A gene expression level was analyzed using the iQ5 Cycler System (Bio-Rad, USA).
(§4) Protein extraction was performed using an RIPA buffer (10 mM Tris-HCl, pH 7.5, 1% NP-40, 0.1% sodium deoxycholate, 0.1% SDS, 150 mM NaCl, and 1 mM EDTA), a Halt™ protease and a phosphatase inhibitor reagent (Thermo, USA). As primary antibodies, anti-α-tubulin (1:1000) and anti-PGC-1α (1:500; Santa Cruz Biotechnology, Santa Cruz, USA) were used. The resulting immunoblotting image was analyzed using the ChemiDoc™ touch imaging system and Image Lab 5.2 software (Bio-Rad, PA, USA).

Olfr544 [2] = assay: mtDNA and mitochondrial density in Scr siRNA normal and Olfr544 knockdown C2C12 cells; type: cell-based, murine
Protocol: as §3
(§5) The differentiated C2C12 cells were treated with azelaic acid, treated with 300 μL of a lysis buffer (20 mM EDTA, 100 mM Tris, 200 mM NaCl, 0.2% Triton X-100, 100 μg/mL) per well, and cultured at 37° C. for 90 minutes, and the extracted supernatant was treated with the same amount of isopropanol and 25 μL of a 4M NaCl solution. After storage at −20° C. overnight, distilled water (D.W.) was added to a pellet obtained by centrifugation (14,000 rpm, RT, 20 min), thereby extracting mtDNA. Afterward, 2 μl of DNA, 10 μl of the SYBR green PCR master mix, 0.5 μL of each of a forward primer and a reverse primer having a concentration of 10 pmol, and 6.6 μL of sterile distilled water were mixed, and qPCR was performed using the Thunderbird TMSYBR® qPCR Mix reagent (Takara Bio Inc., Japan). A gene expression level was analyzed using the iQ5 Cycler System (Bio-Rad, USA).
The change in mitochondrial DNA content and abundance were determined using MitoTracker. Olfr544 siRNA-transfected cells were treated with an azelaic acid at a concentration of 50 μM for 24 hours, and then washed with PBS. Afterward, a medium containing 200 nM of the MitoTracker green probe was added to the cells, and the cells were cultured for 30 minutes. The mitochondrial density was measured by quantifying wavelengths of a part binding to the tracker, which absorbs a wavelength at 490 nm and emits a wavelength at 516 nm, using SpectraMax. The images were obtained by the Zeiss LSM700 confocal microscope, and then analyzed using the Zeiss LSM700 version 3.2 software (Carl Zeiss, Germany)

Olfr544 [3] = assay: Immunoblotting of pCREB, pERK1/2 and LC3II/LC3I in normal and Olfr544 knockdown C2C12 cells; type: cell-based, murine
Protocol: The differentiated skeletal muscle cells, C2C12 cells, were transfected with 200 pmol of scramble (control) or Olfr544 siRNA (Santa Cruz, USA) using the Lipofectamine 2000 reagent (Invitrogen, USA) for 6 hours. Subsequently, one more transfection was performed for 10 to 12 hours. After 24 hours, the transfected cells were treated with an azelaic acid and used for protein extraction.
as §4, with “antibodies, anti-CREB (1:250), anti-p-CREB (Ser133; 1:500), anti-β-actin (1:1000),” for “antibodies,”, “(1:1000), anti-ERK1/2 (1:500), anti-p-ERK1/2 (Thr53,54, 1:500),” for “(1:1000)”, “used. In addition, anti-LC3B (1:500) was purchased from Novus Biologicals (Novus Biologicals, USA).” for “used.”

[4] = tested on: muscle tissue of HFD-induced obese mice; assay: Oral administration for 6 weeks to HFD-induced obese normal and Olfr544 knockout mice, muscle tissue qPCR and mtDNA; type: in vivo, mouse; conditions: oral 100 mg/kg
Protocol: (§6) 8-week-old ICR male […] and C57BL/6J were purchased from Samtako (Gyeonggi-do, Seoul), and Olfr544 knockout mice from which exon 2 (161-428 bp) of an Olfr544 gene was removed using a CRISPR-Cas9 system were purchased from Macrogen (Seoul, Korea). All animal experiments were carried out in accordance with the experimental method (Protocol No. KUIACUC-2016-97) approved by the Animal Experiment Ethics Committee at Korea University. In the breeding environment, a 12-hour light cycle, a room temperature of 25 to 31° C., and relative humidity of […] were maintained. The mice were freely fed a 60% high-fat diet, and randomly divided into 4 groups (n=7, two groups for normal mice, and the other two groups for knockout (KO) mice). For exact Olfr544 activation, the mice were fasted overnight, and then intraperitoneally injected with an azelaic acid (100 mg/kg of body weight). For a control, the same amount of PBS was intraperitoneally injected. In an experiment for long-term administration of an azelaic acid, the azelaic acid was orally administered at a dose of 100 mg/kg of body weight. During the last week of the experimental period (6 weeks), the mice fasted for 16 hours were anesthetized and sacrificed. The collected muscle tissue was put into a freezing tube, immediately put into liquid nitrogen, and then stored at −80° C.
cDNA was synthesized using RNA extracted by adding the RNAiso plus reagent to murine muscle cells. Subsequently, the synthesized cDNA was subjected to qPCR using the Thunderbird TMSYBR® qPCR Mix reagent (Takara Bio Inc., Japan). A gene expression level was analyzed using the iQ5 Cycler System (Bio-Rad, USA).
as §5, with “Murine muscle” for “The differentiated C2C12”, “with” for “with azelaic acid, treated with 300 μL of”, “μg/mL),” for “μg/mL) per well,”

muscle tissue of mice = assay: Intraperitoneal injection to normal and Olfr544 knockout mice, muscle tissue protein expression; type: in vivo, mouse; conditions: intraperitoneal 100 mg/kg; for pERK/ERK protein expression increase in muscle: compared with control
Source text: FIG. 7A to FIG. 7E are diagrams showing mechanisms of promoting mitochondrial biogenesis according to Olfr544 activity of an azelaic acid in mice (FIG. 7A: the images showing pCREB, CREB, PGC-1α, ERK1/2, pERK1/2 and LC3 proteins expression, FIG. 7B: analysis for pCREB and CREB protein expression levels, FIG. 7C: analysis for PGC-1α protein expression per an azelaic acid treatment time, FIG. 7D: analysis for pERK and ERK protein expression levels, and FIG. 7E: analysis for LC3 protein expression per an azelaic acid treatment time in muscle tissue extracted 30 and 120 minutes after an azelaic acid is intraperitoneally injected into normal mice and Olfr544 KO mice).
as §6

[5] = Scr siRNA-transfected normal C2C12 cells
[6] = Olfr544 knockdown C2C12 cells, 50 μM, 24 hours
[7] = normal mice, 30 minutes after injection
[8] = normal mice, 120 minutes after injection

Compound: O=C(O)CCCCCCCC(=O)O [azelaic acid, nonanedioic acid]
- toxicity (cell viability, MTT assay) (Hepa1c1c-7 cells): toxicity was not observed at any concentration
- PGC-1α gene expression (PGC-1α): increased
- PGC-1α protein expression (PGC-1α): increased
- mitochondrial density (MitoTracker quantification) (C2C12 cells; 50 μM, 24 hours): significantly increased
- mtDNA level, increase over control (C2C12 cells; 50 μM, 24 hours): about 2.5 fold
- mitochondrial density, MitoTracker images under confocal fluorescence microscopy (C2C12 cells; treated group compared to control group): substantial increases
- PGC-1α mRNA level (Olfr544 [1]; Olfr544 knockdown C2C12 cells): this effect is not shown
- PGC-1α protein level (Olfr544 [1]; Olfr544 knockdown C2C12 cells): this effect is not shown
- PGC-1α mRNA level (Olfr544 [1]; [5]): significantly increases
- PGC-1α protein level (Olfr544 [1]; [5]): significantly increases
- mitochondrial density (quantification) (Olfr544 [2]; C2C12 normal cells, azelaic acid (50 µM)): enrichment of mitochondria
- mitochondrial density change (Olfr544 [2]; [6]): no changes
- mtDNA change (Olfr544 [2]; [6]): no changes
- mtDNA increase (Olfr544 [2]; azelaic acid-treated normal C2C12 cells, 50 μM, 24 hours): about 1.6 fold
- LC3II/LC3I protein expression (Olfr544 [3]; Olfr544 knockdown C2C12 cells): this effect disappeared
- pCREB expression change (Olfr544 [3]; Olfr544 knockdown C2C12 cells): no change
- pCREB expression increase (Olfr544 [3]; normal (Scr siRNA) C2C12 cells): about 2 fold
- LC3II/LC3I protein expression increase (Olfr544 [3]; normal C2C12 cells, compared to the control group): about 3 fold
- phosphorylated ERK1/2 protein expression increase (Olfr544 [3]; skeletal muscle cells (C2C12)): 1.5 fold
- PGC-1α mRNA expression in muscle ([4]; Olfr544 knockout HFD mice): no changes
- Tfa gene expression in muscle ([4]; Olfr544 knockout HFD mice): no change
- mt DNAs in muscle ([4]; Olfr544 knockout HFD mice): no change
- Tfa gene expression increase in muscle ([4]; normal HFD mice): about 3.3 fold
- PGC-1α mRNA expression increase in muscle ([4]; normal HFD mice, compared to control group): about 1.9 fold
- mt DNAs in muscle ([4]; normal HFD mice, compared to non-administered mice): increased
- LC3II/LC3I protein expression in muscle (muscle tissue of mice; Olfr544 knockout mice): no change
- pERK/ERK protein expression in muscle (muscle tissue of mice; Olfr544 knockout mice): no change
- LC3II/LC3I protein expression increase in muscle (muscle tissue of mice; [7]): 1.5 fold
- pERK/ERK protein expression increase in muscle (muscle tissue of mice; [7]): 2.5 fold
- LC3II/LC3I protein expression in muscle (muscle tissue of mice; [8]): not changed
- pERK/ERK protein expression increase in muscle (muscle tissue of mice; [8]): 2.8 fold
